Data published in US9833425B2, “Gentisic acid is used to improve systemic hemodynamics, hepatic mitochondrial function and lactate acidemia in patients with septic shock” (priority 2015, dated 2017).
Entries after “also recorded” stand apart in the source; their conditions may differ. Read-outs that look alike come from different tables or passages of the source. Marks after values point to notes of the source that are not given here.

Tests used:
[1] = system: mitochondrial complex IV (cytochrome c oxidase); test: Enzymatic activity of hepatic mitochondrial complex IV; assay type: biochemical, dog; details: hepatic mitochondria of treated septic dogs; mean ± SD
Text: As part of our assessment of mitochondrial function, we also measured the enzymatic activity of hepatic mitochondrial complex IV based on the rationale of Levy et al (10), since these investigators considered that dysfunction of complex IV was the most important determinant of abnormal mitochondrial function in SS. We determined complex IV activity spectrophotometrically by a temperature-controlled Ultrospec™ 2100 ultraviolet-visible spectrophotometer (Biopharmacia Biotech, Uppsala, Sweden) (17). Complex IV activity was measured at 25° C. by monitoring the absorbance decrease of reduced cytochrome c at 550 nm.

[2] = system: canine model of septic shock (Pseudomonas aeruginosa); details: for Arterial pH / LD (lactate dehydrogenase) / Oxygen delivery: mean ± SD
Procedure: We used a bacteremic model of Pseudomonas aeruginosa in this study as previously described (20). We used this particular model, since we wanted to measure mitochondrial function and LA under conditions of an acute and intensive inflammatory response analogous to that which would occur in a severe bout of SS in the clinical condition. […] Over the course of the experiment, we studied the animals (18 to 26 kg) while anesthetized with sufentanil citrate (0.05-0.3 ug/kg/min) and midazolam (5 ug/kg/min), and while being ventilated receiving 100% oxygen to maintain arterial around PO2 ˜400 mmHg. We adjusted the ventilator rate over the course of the study to attenuate the development of the metabolic acidosis that is usually observed (20).
To assess hemodynamics in this model, we inserted vascular catheters under sterile conditions as previously described (20), after which we connected the catheters to pressure transducers (Cobe, Argon) that were referenced relative to the left atrium and connected to a chart recorder (Astro-Med, W Warwick, R.I.). To measure MAP, we inserted a polyethylene catheter into the right femoral artery, while to measure pulmonary vascular pressures, we inserted a Swanz-Ganz catheter (Edwards Lifesciences, Irvine, Calif.) by percutaneous techniques through the right jugular vein. From the Swanz-Ganz catheter, we obtained measurements of pulmonary arterial pressure (Ppa), wedge pressure (Pwp), and right atrial pressure (Rap), as well as determinations of thermodilution cardiac output (CO).
From the hemodynamic measurements, we calculated SV from CO/heart rates (HR), stroke work (SW) from [SV*(MAP−Pwp)], and systemic vascular resistance (SVR) from [(MAP-Rap)/CO)*80]. We also normalized measurements of SV, SW, and CO and organ oxygen delivery (DO2) to body weight. We calculated DO2 from CO×Hb×1.34 ml oxygen per gram of Hb, since Hb was 100% saturated at a PO2 of ˜400 mmHg. From the arterial catheter and distal port of the Swanz-Ganz catheter, we also took arterial and mixed venous blood samples, respectively, for analyses of PO2, PCO2, and pH.
In addition, we placed another polyethylene catheter into the left jugular vein, also by percutaneous techniques, for infusion of the bacteria and intravenous fluids and for obtaining blood chemistry and hematological samples. Since the baseline Pwp found in this model usually averages≈8-10 mmHg, we infused normal saline solution as necessary to maintain Pwp relatively constant over the duration of this study. […] The Clinical Chemistry Laboratory at the Health Sciences Centre performed the clinical laboratory tests.
We included 5 groups of animals in the initial phase of this study. These groups included a septic control group, a non-septic control group, a norepinephrine (NE) septic group, a gentisic acid sodium salt (GSS) septic group, and a GSS non-septic group. In each group, we made baseline measurements of hemodynamics and blood parameters after approximately 1 hr period of stability. In the septic groups, after initiation of the bacterial infusion, we repeated the measurements in the septic shock condition. […] In the septic control group, after the SS condition, we started an infusion of 5% dextrose in water (D5W) at approximately 40 ml/hr for the remainder of the study, since D5W was the diluent for both the NE and GSS treatments.
In all groups, we then made posttreatment measurements at 3 hrs and 5 hrs after completion of the septic shock/sham-shock determinations.
In this supplemental study, we examined the effect of gallic acid on hemodynamics and mitochondrial function in our Pseudomonas aeruginosa model in a manner identical to that described for GSS treatment.

[3] = system: hepatic mitochondria; test: Oxygen consumption rates of hepatic mitochondria harvested after in vivo treatment (Seahorse XF24); design: species or system dog; details: treated septic dogs; FCCP 4 uM
Procedure: After completion of the in-vivo measurements, we administered sodium pentobarbital (110 mg/kg) to euthanize the animal. In a subset of animals of each group, we immediately harvested a piece of liver and isolated the mitochondria as described by Schnaitman and Greenawalt (23). Briefly, we minced the extracted liver in mitochondrial isolation buffer (MSHE) that includes 70 mM sucrose, 210 mM mannitol, 5 mM HEPES, 1 mM EGTA, and fatty acid free bovine serum albumin (BSA). We then disrupted the tissue using a drill-driven glass/Teflon dounce homogenizer. We centrifuged the homogenate three times, after which we re-suspended the final pellet in a minimal volume of MSHE+BSA and determined protein (mg/ml). We diluted the mitochondrial preparation in cold mitochondrial assay solution (MAS) that contained 70 mM sucrose, 220 mM mannitol, 10 mM KH2PO4, 5 mM MgCl2, 2 mM HEPES, 1 mM EGTA, and BSA for plating directly onto the custom Seahorse 24-well culture dish (˜20 ug mitochondrial protein/50 ul per well; see further below). After centrifugation of the plate and addition of appropriate substrates, we viewed the mitochondria under a microscope to ensure consistent adherence to the well. We then transferred the plate to the XF24 Analyzer for initiation of the protocol as described below (17).
To examine mitochondrial function in this model, we used a novel new technology that is capable of measuring dynamic changes in mitochondrial function, not easily attainable by other technologies (17). The Seahorse® XF24 extracellular flux analyser (Seahorse Bioscience, MA, USA) refines the technology by which mitochondrial oxygen consumption can be measured. This technology uses a piston to reversibly enclose a small volume (7 ul) above the mitochondria that can monitor oxygen uptake in that volume for 2-5 min, then raises the piston, allowing the bulk incubation medium (˜1 ml) to re-equilibrate. The ability to make up to 4 additions during the experiment allows mitochondrial respiration to be measured under various metabolic conditions. This piece of equipment has never been used to measure mitochondrial function in SS.
In this protocol, we sequentially measured mitochondrial function under various metabolic conditions (17). To obtain basal OCR, we first added a substrate to the preparation that contained pyruvate (10 mM) and malate (2 mM). We then added ADP (adenosine-diphosphate; 4 mM) that allows ATP synthase to function, producing an increase in OCR (coupled OCR) that is termed “state3ADP”. When the ATP/ADP ratio approaches equilibrium, pmf rises, after which proton reentry through the synthase stops and respiration slows. We terminated coupled respiration (i.e. state3ADP) by the addition of the ATP synthase inhibitor oligomycin (2.0 uM) in which we achieved “stateoligomycin” where ATP recycling cannot contribute and there is a stable decrease in OCR. We then added the protonophore, FCCP (4 uM; carbonyl cyanide p-trifluoromethoxy-phenylhydrazone). FCCP leads to uncoupled respiration in which we previously titrated the concentration of FCCP to yield a maximal effect. In mitochondria in which ATP synthase activity is a limiting factor, uncoupled respiration may be greater than coupled respiration. […] We finally added rotenone (R; 2 uM) and antimycin A (AA; 2 uM) which are inhibitors of the electron transport chain (ETC) complexes, I and III, respectively. When added to the mitochondrial preparation, these inhibitors produce a marked decline in mitochondrial respiration since the electron transport chain is inhibited.
With each treatment group, we obtained measurements of basal OCR, coupled OCR (i.e. state3ADP), and maximal OCR. In addition, we calculated coupled and uncoupled respiratory control ratios from state3ADP/stateoligomycin and uncoupled respiration/state FCCP/stateoligomycin, respectively. […]

[4] = septic dogs, 3 hrs posttreatment
[5] = septic dogs, 5 hrs posttreatment
[6] = septic dogs, baseline (before bacteria/treatment)
[7] = septic dogs, septic shock (before treatment)

NC[C@H](O)c1ccc(O)c(O)c1 [NE, norepinephrine]
enzymatic activity of mitochondrial complex IV [1]: 3.89±0.33 umol/min/mg protein | effect of treatment on troponin (index of myocardial injury) ([2]; dog, in vivo): increased in the NE septic group | effect of treatment on stroke work index ([2]; septic dogs, 3 hr and 5 hr vs septic control group, did not reach statistical significance): an increase in stroke work index | effect of treatment on systemic vascular resistance (SVR) ([2]; septic dogs, 3 hrs and 5 hrs posttreatment vs septic shock condition): increased SVR back to the baseline value; also recorded: an increase in SVR | Arterial pH [2, 4]: 7.20 ± .04*^+$ | LD (lactate dehydrogenase) [2, 4]: 315 ± 113*^+$ IU | Oxygen delivery [2, 4]: 29 ± 8 mL/min/kg | Arterial pH [2, 5]: 7.16 ± 0.06*^+$ | LD (lactate dehydrogenase) [2, 5]: 409 ± 167*^+$^ IU | Oxygen delivery [2, 5]: 28 ± 10 mL/min/kg | Arterial pH [2, 6]: 7.38 ± .05 | LD (lactate dehydrogenase) [2, 6]: 43 ± 23 IU | Oxygen delivery [2, 6]: 20 ± 3 mL/min/kg | effect of treatment on mean arterial pressure (MAP) ([2]; septic dogs, infusion started at septic shock condition, 3 hr and 5 hr post treatment): increased MAP back to the baseline value; also recorded: return in MAP to baseline | effect of treatment on blood lactate concentration ([2]; septic dogs, over the course of the study): serum lactate increased; also recorded: significantly increased | Arterial pH [2, 7]: 7.26 ± .04*^+$ | LD (lactate dehydrogenase) [2, 7]: 177 ± 97*^+ IU | Oxygen delivery ([2]; septic dogs, septic shock condition (before treatment)): 26 ± 11 mL/min/kg | effect of treatment on oxygen delivery (DO2) ([2]; septic dogs, vs septic control group and gentisic septic group): increase in DO2 | maximal (uncoupled) respiration (OCR after FCCP) of hepatic mitochondria [3]: restore the increase in OCR in response to FCCP
